Assay results: ChEMBL document CHEMBL3046607, “Synthesis and Herbicidal Activity of New 1-Alkyl-3-aryloxypyrazole-4-carboxamide Derivatives” (J Pestic Sci, 2004)
The source made the active and inactive calls. The calls are words filed in the database; no cut-off is given here.

Experiments:
Pontederia vaginalis [1] = assay: Pre-emergence herbicidal activity against Monochoria vaginalis at 500 g a.i/ha measured after 14 days; type: functional, organism-based
Ammannia multiflora [2] = assay: Pre-emergence herbicidal activity against Ammannia multiflora assessed as bleaching of stem/leaf parts; type: functional, organism-based
Ammannia multiflora [3] = assay: Pre-emergence herbicidal activity against Ammannia multiflora at 500 g a.i/ha measured after 14 days; type: functional, organism-based
[4] = tested on: Schoenoplectiella juncoides; assay: Pre-emergence herbicidal activity against Schoenoplectiella juncoides assessed as bleaching of stem/leaf parts; type: functional, organism-based
Cyperus difformis [5] = assay: Pre-emergence herbicidal activity against Cyperus difformis at 500 g a.i/ha measured after 14 days; type: functional, organism-based
Echinochloa oryzicola [6] = assay: Pre-emergence herbicidal activity against Echinochloa oryzicola at 500 g a.i/ha measured after 14 days; type: functional, organism-based
[7] = tested on: Schoenoplectiella juncoides; assay: Pre-emergence herbicidal activity against Schoenoplectiella juncoides at 33 g a.i/ha measured after 14 days; type: functional, organism-based
Elatine triandra [8] = assay: Pre-emergence herbicidal activity against Elatine triandra assessed as bleaching of stem/leaf parts; type: functional, organism-based
Echinochloa oryzicola [9] = assay: Pre-emergence herbicidal activity against Echinochloa oryzicola assessed as bleaching of stem/leaf parts; type: functional, organism-based
Lindernia procumbens [10] = assay: Post-emergence herbicidal activity against Lindernia procumbens assessed as bleaching of stem/leaf parts; type: functional, organism-based; further: test concentration or dose not given here
Elatine triandra [11] = assay: Post-emergence herbicidal activity against Elatine triandra assessed as bleaching of stem/leaf parts; type: functional, organism-based; further: test concentration or dose not given here
Cyperus difformis [12] = assay: Pre-emergence herbicidal activity against Cyperus difformis at 100 g a.i/ha measured after 14 days; type: functional, organism-based
Rotala indica [13] = assay: Pre-emergence herbicidal activity against Rotala indica at 100 g a.i/ha measured after 14 days; type: functional, organism-based
Rotala indica [14] = assay: Pre-emergence herbicidal activity against Rotala indica assessed as bleaching of stem/leaf parts; type: functional, organism-based
Ammannia multiflora [15] = assay: Pre-emergence herbicidal activity against Ammannia multiflora at 100 g a.i/ha measured after 14 days; type: functional, organism-based
Cyperus difformis [16] = assay: Pre-emergence herbicidal activity against Cyperus difformis assessed as bleaching of stem/leaf parts; type: functional, organism-based
Lindernia procumbens [17] = assay: Pre-emergence herbicidal activity against Lindernia procumbens at 100 g a.i/ha measured after 14 days; type: functional, organism-based
Lindernia procumbens [18] = assay: Pre-emergence herbicidal activity against Lindernia procumbens at 500 g a.i/ha measured after 14 days; type: functional, organism-based
Oryza sativa [19] = assay: Phytotoxicity against Oryza sativa cv. Koshihikari (rice) at 500 g a.i/ha measured after 14 days; type: organism-based; settings: in vivo, 336 h
Ammannia multiflora [20] = assay: Post-emergence herbicidal activity against Ammannia multiflora assessed as bleaching of stem/leaf parts; type: functional, organism-based
Oryza sativa [21] = assay: Phytotoxicity against Oryza sativa cv. Koshihikari (rice) at 100 g a.i/ha measured after 14 days; type: organism-based; settings: in vivo, 336 h
Lindernia procumbens [22] = assay: Pre-emergence herbicidal activity against Lindernia procumbens at 33 g a.i/ha measured after 14 days; type: functional, organism-based
Rotala indica [23] = assay: Pre-emergence herbicidal activity against Rotala indica at 33 g a.i/ha measured after 14 days; type: functional, organism-based
Pontederia vaginalis [24] = assay: Pre-emergence herbicidal activity against Monochoria vaginalis assessed as bleaching of stem/leaf parts; type: functional, organism-based
Oryza sativa [25] = assay: Phytotoxicity against Oryza sativa cv. Koshihikari (rice) at 33 g a.i/ha measured after 14 days; type: organism-based; settings: in vivo, 336 h
Pontederia vaginalis [26] = assay: Pre-emergence herbicidal activity against Monochoria vaginalis at 33 g a.i/ha measured after 14 days; type: functional, organism-based
Pontederia vaginalis [27] = assay: Post-emergence herbicidal activity against Monochoria vaginalis assessed as bleaching of stem/leaf parts; type: functional, organism-based
Elatine triandra [28] = assay: Pre-emergence herbicidal activity against Elatine triandra at 500 g a.i/ha measured after 14 days; type: functional, organism-based
[29] = tested on: Schoenoplectiella juncoides; assay: Post-emergence herbicidal activity against Schoenoplectiella juncoides assessed as bleaching of stem/leaf parts; type: functional, organism-based; further: test concentration or dose not given here
Echinochloa oryzicola [30] = assay: Pre-emergence herbicidal activity against Echinochloa oryzicola at 100 g a.i/ha measured after 14 days; type: functional, organism-based
Echinochloa oryzicola [31] = assay: Post-emergence herbicidal activity against Echinochloa oryzicola assessed as bleaching of stem/leaf parts; type: functional, organism-based
Rotala indica [32] = assay: Post-emergence herbicidal activity against Rotala indica assessed as bleaching of stem/leaf parts; type: functional, organism-based
Elatine triandra [33] = assay: Pre-emergence herbicidal activity against Elatine triandra at 33 g a.i/ha measured after 14 days; type: functional, organism-based
[34] = tested on: Schoenoplectiella juncoides; assay: Pre-emergence herbicidal activity against Schoenoplectiella juncoides at 100 g a.i/ha measured after 14 days; type: functional, organism-based
Ammannia multiflora [35] = assay: Pre-emergence herbicidal activity against Ammannia multiflora at 33 g a.i/ha measured after 14 days; type: functional, organism-based
Rotala indica [36] = assay: Pre-emergence herbicidal activity against Rotala indica at 500 g a.i/ha measured after 14 days; type: functional, organism-based
[37] = tested on: Schoenoplectiella juncoides; assay: Pre-emergence herbicidal activity against Schoenoplectiella juncoides at 500 g a.i/ha measured after 14 days; type: functional, organism-based
Cyperus difformis [38] = assay: Post-emergence herbicidal activity against Cyperus difformis assessed as bleaching of stem/leaf parts; type: functional, organism-based; further: test concentration or dose not given here
Elatine triandra [39] = assay: Pre-emergence herbicidal activity against Elatine triandra at 100 g a.i/ha measured after 14 days; type: functional, organism-based
Cyperus difformis [40] = assay: Pre-emergence herbicidal activity against Cyperus difformis at 33 g a.i/ha measured after 14 days; type: functional, organism-based
Lindernia procumbens [41] = assay: Pre-emergence herbicidal activity against Lindernia procumbens assessed as bleaching of stem/leaf parts; type: functional, organism-based
Pontederia vaginalis [42] = assay: Pre-emergence herbicidal activity against Monochoria vaginalis at 100 g a.i/ha measured after 14 days; type: functional, organism-based
Echinochloa oryzicola [43] = assay: Pre-emergence herbicidal activity against Echinochloa oryzicola at 33 g a.i/ha measured after 14 days; type: functional, organism-based
Elatine triandra [44] = assay: Pre-emergence herbicidal activity against Elatine triandra at 10 g a.i/ha measured after 14 days; type: functional, organism-based
Cyperus difformis [45] = assay: Pre-emergence herbicidal activity against Cyperus difformis at 10 g a.i/ha measured after 14 days; type: functional, organism-based
Rotala indica [46] = assay: Pre-emergence herbicidal activity against Rotala indica at 10 g a.i/ha measured after 14 days; type: functional, organism-based
Echinochloa oryzicola [47] = assay: Pre-emergence herbicidal activity against Echinochloa oryzicola at 10 g a.i/ha measured after 14 days; type: functional, organism-based
Oryza sativa [48] = assay: Phytotoxicity against Oryza sativa cv. Koshihikari (rice) at 10 g a.i/ha measured after 14 days; type: organism-based; settings: in vivo, 336 h
Lindernia procumbens [49] = assay: Pre-emergence herbicidal activity against Lindernia procumbens at 10 g a.i/ha measured after 14 days; type: functional, organism-based
[50] = tested on: Schoenoplectiella juncoides; assay: Pre-emergence herbicidal activity against Schoenoplectiella juncoides at 10 g a.i/ha measured after 14 days; type: functional, organism-based
Pontederia vaginalis [51] = assay: Pre-emergence herbicidal activity against Monochoria vaginalis at 1 0 g a.i/ha measured after 14 days; type: functional, organism-based
Ammannia multiflora [52] = assay: Pre-emergence herbicidal activity against Ammannia multiflora at 10 g a.i/ha measured after 14 days; type: functional, organism-based

Cn1cc(C(=O)Nc2ccccc2)c(Oc2cccc(C(F)(F)F)c2)n1
Activity (Pontederia vaginalis [1]): Active | Activity (Ammannia multiflora [2]): Active | Activity (Ammannia multiflora [3]): Active | Activity [4]: Active | Activity (Cyperus difformis [5]): Active | Activity (Echinochloa oryzicola [6]): Active | Activity [7]: inactive | Activity (Elatine triandra [8]): Active | Activity (Echinochloa oryzicola [9]): Active | Activity (Lindernia procumbens [10]): Active | Activity (Elatine triandra [11]): Active | Activity (Cyperus difformis [12]): Active | Activity (Rotala indica [13]): Active | Activity (Rotala indica [14]): Active | Activity (Ammannia multiflora [15]): Active | Activity (Cyperus difformis [16]): Active | Activity (Lindernia procumbens [17]): Active | Activity (Lindernia procumbens [18]): Active | Activity (Oryza sativa [19]): Toxic | Activity (Ammannia multiflora [20]): Active | Activity (Oryza sativa [21]): Non-toxic | Activity (Lindernia procumbens [22]): Active | Activity (Rotala indica [23]): Active | Activity (Pontederia vaginalis [24]): Active | Activity (Oryza sativa [25]): Non-toxic | Activity (Pontederia vaginalis [26]): Active | Activity (Pontederia vaginalis [27]): Active | Activity (Elatine triandra [28]): Active | Activity [29]: Active | Activity (Echinochloa oryzicola [30]): Active | Activity (Echinochloa oryzicola [31]): Active | Activity (Rotala indica [32]): Active | Activity (Elatine triandra [33]): Active | Activity [34]: Active | Activity (Ammannia multiflora [35]): Active | Activity (Rotala indica [36]): Active | Activity [37]: Active | Activity (Cyperus difformis [38]): Active | Activity (Elatine triandra [39]): Active | Activity (Cyperus difformis [40]): Active | Activity (Lindernia procumbens [41]): Active | Activity (Pontederia vaginalis [42]): Active | Activity (Echinochloa oryzicola [43]): inactive

Cn1cc(C(=O)Nc2ccc(F)cc2F)c(Oc2ccc(Cl)c(C(F)(F)F)c2)n1
Activity (Ammannia multiflora [2]): Active | Activity [4]: Active | Activity [7]: Active | Activity (Elatine triandra [44]): Active | Activity (Elatine triandra [8]): Active | Activity (Echinochloa oryzicola [9]): Active | Activity (Lindernia procumbens [10]): Active | Activity (Elatine triandra [11]): Active | Activity (Cyperus difformis [45]): Active | Activity (Rotala indica [14]): Active | Activity (Rotala indica [46]): Active | Activity (Cyperus difformis [16]): Active | Activity (Ammannia multiflora [20]): Active | Activity (Echinochloa oryzicola [47]): inactive | Activity (Lindernia procumbens [22]): Active | Activity (Rotala indica [23]): Active | Activity (Oryza sativa [48]): Non-toxic | Activity (Lindernia procumbens [49]): Active | Activity (Pontederia vaginalis [24]): Active | Activity (Oryza sativa [25]): Non-toxic | Activity (Pontederia vaginalis [26]): Active | Activity (Pontederia vaginalis [27]): Active | Activity [29]: Active | Activity (Echinochloa oryzicola [31]): Active | Activity (Rotala indica [32]): Active | Activity [50]: Active | Activity (Elatine triandra [33]): Active | Activity (Ammannia multiflora [35]): Active | Activity (Pontederia vaginalis [51]): Active | Activity (Cyperus difformis [38]): Active | Activity (Cyperus difformis [40]): Active | Activity (Lindernia procumbens [41]): Active | Activity (Echinochloa oryzicola [43]): Active | Activity (Ammannia multiflora [52]): Active

Cn1cc(C(=O)Nc2ccc(F)cc2F)c(Oc2cccc(C(F)(F)F)c2)n1
Activity (Ammannia multiflora [2]): Active | Activity [4]: Active | Activity [7]: Active | Activity (Elatine triandra [44]): inactive | Activity (Elatine triandra [8]): Active | Activity (Echinochloa oryzicola [9]): Active | Activity (Lindernia procumbens [10]): Active | Activity (Elatine triandra [11]): Active | Activity (Cyperus difformis [45]): inactive | Activity (Rotala indica [14]): Active | Activity (Rotala indica [46]): inactive | Activity (Cyperus difformis [16]): Active | Activity (Ammannia multiflora [20]): Active | Activity (Echinochloa oryzicola [47]): inactive | Activity (Lindernia procumbens [22]): Active | Activity (Rotala indica [23]): Active | Activity (Oryza sativa [48]): Non-toxic | Activity (Lindernia procumbens [49]): inactive | Activity (Pontederia vaginalis [24]): Active | Activity (Oryza sativa [25]): Non-toxic | Activity (Pontederia vaginalis [26]): Active | Activity (Pontederia vaginalis [27]): Active | Activity [29]: Active | Activity (Echinochloa oryzicola [31]): Active | Activity (Rotala indica [32]): Active | Activity [50]: inactive | Activity (Elatine triandra [33]): Active | Activity (Ammannia multiflora [35]): Active | Activity (Pontederia vaginalis [51]): inactive | Activity (Cyperus difformis [38]): Active | Activity (Cyperus difformis [40]): Active | Activity (Lindernia procumbens [41]): Active | Activity (Echinochloa oryzicola [43]): Active | Activity (Ammannia multiflora [52]): inactive

CCn1cc(C(=O)Nc2ccc(F)cc2F)c(Oc2cccc(C(F)(F)F)c2)n1
Activity (Ammannia multiflora [2]): Active | Activity [4]: Active | Activity [7]: Active | Activity (Elatine triandra [44]): Active | Activity (Elatine triandra [8]): Active | Activity (Echinochloa oryzicola [9]): Active | Activity (Lindernia procumbens [10]): Active | Activity (Elatine triandra [11]): Active | Activity (Cyperus difformis [45]): Active | Activity (Rotala indica [14]): Active | Activity (Rotala indica [46]): Active | Activity (Cyperus difformis [16]): Active | Activity (Ammannia multiflora [20]): Active | Activity (Echinochloa oryzicola [47]): Active | Activity (Lindernia procumbens [22]): Active | Activity (Rotala indica [23]): Active | Activity (Oryza sativa [48]): Non-toxic | Activity (Lindernia procumbens [49]): Active | Activity (Pontederia vaginalis [24]): Active | Activity (Oryza sativa [25]): Non-toxic | Activity (Pontederia vaginalis [26]): Active | Activity (Pontederia vaginalis [27]): Active | Activity [29]: Active | Activity (Echinochloa oryzicola [31]): Active | Activity (Rotala indica [32]): Active | Activity [50]: inactive | Activity (Elatine triandra [33]): Active | Activity (Ammannia multiflora [35]): Active | Activity (Pontederia vaginalis [51]): Active | Activity (Cyperus difformis [38]): Active | Activity (Cyperus difformis [40]): Active | Activity (Lindernia procumbens [41]): Active | Activity (Echinochloa oryzicola [43]): Active | Activity (Ammannia multiflora [52]): Active
